Test results as given in patent US20250026748A1, “N-(5-SUBSTITUTED-[(1,3,4-THIADIAZOLYL) OR (THIAZOLYL)])(SUBSTITUTED)CARBOXAMIDE COMPOUNDS AND USE THEREOF FOR INHIBITING HUMAN POLYMERASE THETA” (Repare Therapeutics Inc., priority 2021, published 2025).

Target: PolQ ATPase enzyme (1-894) (Homo sapiens (Human), UniProt O75417)
Assay: Polθ ATPase enzymatic assay (0.5 nM enzyme concentration), ADP-Glo
Assay type: biochemical
Conditions: average IC50; 0.5 nM PolQ ATPase enzyme (1-894)
Method in brief: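 Enzyme (0.5 nM) pre-incubated 15 min at rt with 10-point inhibitor series in 50 mM Tris pH 7.5, 10% glycerol, 5 mM DTT, 10 mM MgCl2, 0.1 mg/ml BSA; reaction started with 20 nM fork DNA and 100 μM ATP, run 180 min at rt. ADP-Glo luminescence; IC50 from 4-parameter variable-slope fit.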

Sequence of PolQ ATPase enzyme (1-894) (O75417 1-894): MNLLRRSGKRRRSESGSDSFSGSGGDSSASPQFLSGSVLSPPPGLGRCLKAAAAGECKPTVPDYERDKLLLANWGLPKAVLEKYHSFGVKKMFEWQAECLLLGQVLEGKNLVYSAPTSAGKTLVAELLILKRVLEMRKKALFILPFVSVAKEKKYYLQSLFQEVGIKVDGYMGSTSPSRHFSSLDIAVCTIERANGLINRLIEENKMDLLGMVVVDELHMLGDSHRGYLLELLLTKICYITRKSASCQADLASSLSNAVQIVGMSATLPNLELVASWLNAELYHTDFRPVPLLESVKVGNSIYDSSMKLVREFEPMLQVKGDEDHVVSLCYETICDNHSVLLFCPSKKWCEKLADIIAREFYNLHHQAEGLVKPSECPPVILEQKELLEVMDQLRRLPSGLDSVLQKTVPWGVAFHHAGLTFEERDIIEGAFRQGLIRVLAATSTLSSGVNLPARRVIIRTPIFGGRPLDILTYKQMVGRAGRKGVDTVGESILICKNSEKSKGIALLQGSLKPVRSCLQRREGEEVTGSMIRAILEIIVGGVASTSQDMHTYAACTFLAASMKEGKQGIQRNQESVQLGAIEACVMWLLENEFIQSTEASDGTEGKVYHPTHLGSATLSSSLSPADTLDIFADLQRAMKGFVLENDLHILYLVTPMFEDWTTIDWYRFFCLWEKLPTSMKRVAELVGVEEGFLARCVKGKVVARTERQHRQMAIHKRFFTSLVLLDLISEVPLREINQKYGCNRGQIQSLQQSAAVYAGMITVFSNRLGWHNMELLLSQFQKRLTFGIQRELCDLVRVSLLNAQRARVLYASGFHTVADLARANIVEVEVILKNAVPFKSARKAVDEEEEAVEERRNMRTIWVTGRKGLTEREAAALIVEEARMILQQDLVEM

| SMILES | IC50 [nM] |
| --- | --- |
| COc1cnc(C(F)F)cc1-c1cc(C#CCN2CCNC2=O)ccc1C(=O)Nc1nnc(C#CC2CC2)s1 [Compound 197] | < 0.25 |
| COc1cnc(C(F)F)cc1-c1cc(CC#N)ncc1C(=O)Nc1ncc(C#CC2CC2)s1 [Compound 198] | 0.53 |
| COc1cnc(C(F)F)cc1-c1cc(CC(=O)N(C)C)ncc1C(=O)Nc1ncc(C#CC2CC2)s1 [Compound 200] | < 0.25 |
| COc1cnc(C(F)F)cc1-c1cc(-c2cn(C)cn2)ccc1C(=O)Nc1nnc(C#CC2CC2)s1 [Compound 201] | < 0.25 |
| COc1cnc(C(F)F)cc1-c1cc(-c2ccc(=O)n(C)c2)ccc1C(=O)Nc1nnc(C#CC2CC2)s1 [Compound 202] | 0.29 |
| COc1cnc(C(F)F)cc1-c1cc(N(C)C#N)ccc1C(=O)Nc1nnc(C#CC2CC2)s1 [Compound 203] | 2.9 |
| CNC(=O)Cc1ccc(C(=O)Nc2ncc(C#CC3CC3)s2)c(-c2cc(C(F)F)ncc2OC)c1 [Compound 204] | 0.71 |
| COc1cnc(C(F)F)cc1-c1cc(CC(=O)N2CC(C)(O)C2)ccc1C(=O)Nc1ncc(C#CC2CC2)s1 [Compound 205] | 0.16 |
| COc1cnc(C(F)F)cc1-c1cc(CC(=O)N2CC(C)(O)C2)ccc1C(=O)Nc1nnc(C#CC2CC2)s1 [Compound 206] | < 0.25 |
| O=C(Nc1ncc(C#CC2CC2)s1)c1cc(=O)n(Cc2ncco2)cc1-c1cc(C(F)F)ccc1Cl [Compound 207] | 2.6 |
| O=C(Nc1ncc(C#CC2CC2)s1)c1cc(=O)n(Cc2nccs2)cc1-c1cc(C(F)F)ccc1Cl [Compound 208] | 14 |
| COc1cnc(C(F)F)cc1-c1cc(N2CCCCC2=O)ccc1C(=O)Nc1ncc(C#CC2CC2)s1 [Compound 209] | 0.67 |
| COc1cnc(C(F)F)cc1-c1cc(C#CC2(C(=O)N(C)C)CC2)ncc1C(=O)Nc1ncc(C#CC2CC2)s1 [Compound 210] | < 0.25 |
| COc1cnc(C(F)F)cc1-c1cc(C#CC2(C(=O)N(C)C)CC2)ncc1C(=O)Nc1nnc(C#CC2CC2)s1 [Compound 211] | < 0.25 |
| COc1cnc(C(F)F)cc1-c1cc(N2CCCCC2=O)ccc1C(=O)Nc1nnc(C#CC2CC2)s1 [Compound 212] | < 0.25 |
| COc1cnc(C(F)F)cc1-c1cc(N2CCOCC2=O)ccc1C(=O)Nc1ncc(C#CC2CC2)s1 [Compound 213] | < 0.25 |

| SMILES | IC50 [nM] |
| --- | --- |
| COc1cnc(C(F)F)cc1-c1cc(CC(=O)N(C)C)ccc1C(=O)Nc1ncc(C#CC2CC2)s1 [Compound 215] | 0.31 |
| COc1cnc(C(F)F)cc1-c1cc(N2C(=O)CCC2=O)ccc1C(=O)Nc1nnc(C#CC2CC2)s1 [Compound 216] | 1.5 |
| COc1cnc(C(F)F)cc1-c1cc(C#CCN2CCOCC2)ncc1C(=O)Nc1nnc(C#CC2CC2)s1 [Compound 218] | 0.25 |
| COc1cnc(C(F)F)cc1-c1cc(C#CCN2CCOCC2)ccc1C(=O)Nc1nnc(C#CC2CC2)s1 [Compound 219] | < 0.25 |
| COc1cnc(C(F)F)cc1-c1cc(N(C)C(=O)C2(C)COC2)ccc1C(=O)Nc1nnc(C#CC2CC2)s1 [Compound 220] | 0.78 |
| COc1cnc(C(F)F)cc1-c1cc(N(C)C(=O)C2(C)CC2)ccc1C(=O)Nc1nnc(C#CC2CC2)s1 [Compound 221] | 0.98 |
| COc1cnc(C(F)F)cc1-c1cc(N(C)C(=O)C2CC2)ccc1C(=O)Nc1nnc(C#CC2CC2)s1 [Compound 222] | < 0.25 |
| COc1cnc(C(F)F)cc1-c1cc(C#CC2CCOC2)ncc1C(=O)Nc1ncc(C#CC2CC2)s1 (stereo not shown) [Compound 223] | 0.29 |
| [2H]C([2H])([2H])N(C(=O)C1CC(C)(O)C1)c1ccc(C(=O)Nc2nnc(C#CC3CC3)s2)c(-c2cc(C(F)F)ncc2OC)c1 (stereo not shown) [Compound 224] | 0.35 |
| COc1cnc(C(F)F)cc1-c1cc(NC(C)=O)ccc1C(=O)Nc1nnc(C#CC2CC2)s1 [Compound 225] | 0.56 |
| COc1cnc(C(F)F)cc1-c1cc(CC#N)ncc1C(=O)Nc1nnc(C#CC2CC2)s1 [Compound 226] | 0.61 |
| COc1cnc(C(F)F)cc1-c1cc(CN2CCOCC2=O)ccc1C(=O)Nc1nnc(C#CC2CC2)s1 [Compound 227] | 6.9 |
| COc1cnc(C(F)F)cc1-c1cc(CC(=O)N2CCOCC2)ccc1C(=O)Nc1nnc(C#CC2CC2)s1 [Compound 228] | < 0.25 |
| [2H]C([2H])([2H])N(C(=O)C1CCOC1)c1ccc(C(=O)Nc2nnc(C#CC3CC3)s2)c(-c2cc(C(F)F)ncc2OC)c1 (stereo not shown) [Compound 229] | 1.4 |
| CNC(=O)Cc1ccc(C(=O)Nc2nnc(C#CC3CC3)s2)c(-c2cc(C(F)F)ncc2OC)c1 [Compound 230] | < 0.25 |
| COc1cnc(C(F)F)cc1-c1cc(Cc2nnc(C)o2)ccc1C(=O)Nc1nnc(C#CC2CC2)s1 [Compound 244] | < 0.25 |

Next, values leading:

| IC50 [nM] | SMILES |
| --- | --- |
| 1.6 | COc1cnc(C(F)F)cc1-c1cc(CN2CCN(C)C2=O)ccc1C(=O)Nc1nnc(C#CC2CC2)s1 [Compound 231] |
| < 0.25 | [2H]C([2H])([2H])N(C(C)=O)c1ccc(C(=O)Nc2nnc(C#CC3CC3)s2)c(-c2cc(C(F)F)ncc2OC)c1 [Compound 232] |
| < 0.25 | COc1cnc(C(F)F)cc1-c1cc(C#CC2(n3cccn3)CC2)ncc1C(=O)Nc1nnc(C#CC2CC2)s1 [Compound 233] |
| 34 | COc1cnc(Cl)cc1-c1cc(C2(C(=O)N(C)C)CC2)ccc1C(=O)Nc1nnc(C#CC2CC2)s1 [Compound 234] |
| 19 | COc1cnc(C(F)F)cc1-c1cc(N2CCOCC2)ncc1C(=O)Nc1nnc(C#CC2CC2)s1 [Compound 235] |
| 0.56 | COc1cnc(C(F)F)cc1-c1cc(C#CCN(C)C)ccc1C(=O)Nc1nnc(C#CC2CC2)s1 [Compound 236] |
| < 0.25 | [2H]C([2H])([2H])N(C(C)=O)c1ccc(C(=O)Nc2nnc(C#CC3CC34CC4)s2)c(-c2cc(C(F)F)ncc2OC)c1 (stereo not shown) [Compound 237] |
| 3.6 | COc1cnc(C(F)F)cc1-c1cc(C#CC2(O)CCS(=O)(=O)CC2)ccc1C(=O)Nc1ncc(C#CC2CC2)s1 [Compound 238] |
| 18 | COc1cnc(C(F)F)cc1-c1cc(N2CCOCC2)ccc1C(=O)Nc1nnc(C#CC2CC2)s1 [Compound 239] |
| 0.73 | COc1cnc(C(F)F)cc1-c1cc(C#CC(C)(C)CO)ccc1C(=O)Nc1nnc(C#CC2CC2)s1 [Compound 240] |
| 0.33 | COc1cnc(C(F)F)cc1-c1cc(C#CC(C)(C)CO)ncc1C(=O)Nc1nnc(C#CC2CC2)s1 [Compound 241] |
| 0.35 | COc1cnc(C(F)F)cc1-c1cc(C#CCN2CCS(=O)(=O)CC2)ccc1C(=O)Nc1nnc(C#CC2CC2)s1 [Compound 242] |
| 15 | CNc1ccc(C(=O)Nc2nnc(C#CC3CC3)s2)c(-c2cc(C(F)F)ncc2OC)c1 [Compound 243] |
| < 0.25 | COc1cnc(C(F)F)cc1-c1cc(CC(=O)N(C)C)ncc1C(=O)Nc1nnc(C#CC2CC2)s1 [Compound 245] |
| 1.1 | COc1cnc(C(F)F)cc1-c1cc(C#CC2(OC)CCOCC2)ccc1C(=O)Nc1nnc(C#CC2CC2)s1 [Compound 246] |
| 2.9 | COc1cnc(C(F)F)cc1-c1cc(C2CC2)ncc1C(=O)Nc1nnc(C#CC2CC2)s1 [Compound 247] |
| < 0.25 | COc1ccc(C(F)(F)F)cc1-c1cc(C#CC(C)O)ncc1C(=O)Nc1nnc(C#CC2CC2)s1 (stereo not shown) [Compound 248] |
| 0.77 | COc1ccc(C(F)(F)F)cc1-c1cc(C#CC2CCCOC2)ncc1C(=O)Nc1nnc(C#CC2CC2)s1 (stereo not shown) [Compound 249] |

| IC50 [nM] | SMILES |
| --- | --- |
| 1.3 | COc1cnc(Cl)cc1-c1cc(C2(C(=O)O)CC2)ccc1C(=O)Nc1nnc(C#CC2CC2)s1 [Compound 250] |
| 0.45 | COc1cnc(C(F)F)cc1-c1cc(C#N)ccc1C(=O)Nc1nnc(C#CC2CC2)s1 [Compound 251] |
| < 0.25 | COc1cnc(C(F)F)cc1-c1cc(-c2cnn(C)c2)ncc1C(=O)Nc1nnc(C#CC2CC2)s1 [Compound 252] |
| < 0.25 | COc1cnc(C(F)F)cc1-c1cc(C#CC(C)(C)O)ncc1C(=O)Nc1nnc(C#CC2CC2)s1 [Compound 253] |
| 1.7 | COc1cnc(C(F)F)cc1-c1cc(C(=O)N2CCOCC2)ccc1C(=O)Nc1nnc(C#CC2CC2)s1 [Compound 254] |
| 0.26 | COc1cnc(C(F)F)cc1-c1cc(C#CC2(O)CCOCC2)ncc1C(=O)Nc1nnc(C#CC2CC2)s1 [Compound 255] |
| 2.9 | COc1cnc(C(F)F)cc1-c1cc(CCC2(O)CCS(=O)(=O)CC2)ccc1C(=O)Nc1nnc(C#CC2CC2)s1 [Compound 256] |
| 26 | COc1cnc(C(F)F)cc1-c1cc(C(=O)N(C)C)ccc1C(=O)Nc1ncc(C#CC2CC2)s1 [Compound 257] |
| 2.9 | COc1cnc(C(F)F)cc1-c1cc(C(=O)N(C)C)ccc1C(=O)Nc1nnc(C#CC2CC2)s1 [Compound 258] |
| 1.2 | COc1cnc(C(F)F)cc1-c1cc(Cl)ncc1C(=O)Nc1nc(C#N)c(C#CC2CC2)s1 [Compound 259] |
| 2 | COc1cnc(C(F)F)cc1-c1cc(C[S+](C)[O-])ccc1C(=O)Nc1nnc(C#CC2CC2)s1 (stereo not shown) [Compound 260] |
| 0.62 | COc1cnc(C(F)F)cc1-c1cc(-n2cccn2)ncc1C(=O)Nc1nnc(C#CC2CC2)s1 [Compound 261] |
| 0.29 | COc1cnc(C(F)F)cc1-c1cc(-n2ccnc2)ncc1C(=O)Nc1nnc(C#CC2CC2)s1 [Compound 262] |
| < 0.25 | COc1cnc(C(F)F)cc1-c1cc(-n2cncn2)ncc1C(=O)Nc1nnc(C#CC2CC2)s1 [Compound 263] |
| < 0.25 | COc1cnc(C(F)F)cc1-c1cc(C#CC2(O)CCS(=O)(=O)CC2)ccc1C(=O)Nc1nnc(C#CC2CC2)s1 [Compound 264] |
| < 0.25 | COc1cnc(C(F)F)cc1-c1cc(CC(=O)N(C)C)ccc1C(=O)Nc1nnc(C#CC2CC2)s1 [Compound 265] |
| 4.4 | COc1cnc(C(F)F)cc1-c1cnccc1C(=O)Nc1nnc(C2C[C@H]2c2ccc(C#N)nc2)s1 (stereo partly shown) [Compound 266] |
